Results from ChEMBL document CHEMBL3881525, “Analogs of dehydrophenylahistins and their therapeutic use” (2007).
≈ marks a conversion by molar mass, not a printed value. Calls of active or inactive are those of the source. The calls are words filed in the database; no cut-off is given here.

Columns and labels:
Nakaseomyces glabratus = assay: Fungicidal activity against Candida glabrata measured after 48 hrs by broth dilution method; format: functional
MES-SA = assay: Ratio of EC50 for taxol-resistant human MES-SA/DX5 cells expressing MDR1 mRNA and P-gp to EC50 for taxol-sensitive human MES-SA cells; format: functional
[1] = Antiproliferative activity against human mitoxantrone-resistant HL60/MX2 cells; format: functional, cell-based; conditions: HL-60
[2] = Cytotoxicity against human HT-29 cells assessed as reduction in cell viability measured after 48 hrs by resazurin dye-based fluorometric analysis; format: functional; conditions: Homo sapiens, HT-29, 48 h
[3] = Antiproliferative activity against taxol-resistant human MES-SA/Dx5 cells expressing MDR1 mRNA and P-gp; format: functional, cell-based
Tubulin (Homo sapiens) [4] = molecular target: T1, Tubulin (Homo sapiens) (UniProt P68371+Q9H4B7+P0DPH7+P68366+Q13509+Q71U36+P04350+Q3ZCM7+P07437+P68363+Q9BQE3+Q6PEY2+Q13885+Q9BVA1+Q9BUF5); assay: Induction of microtubule depolymerization in HUVEC at 1.5 to 5 uM by turbidity spectroscopic analysis; format: cell-based
[5] = Cytotoxicity against human MDA-MB-231 cells assessed as reduction in cell viability measured after 48 hrs by resazurin dye-based fluorometric analysis; format: functional; conditions: MDA-MB-231, 48 h
HL-60 = assay: Ratio of EC50 for human mitoxantrone-sensitive HL60 cells to EC50 for human mitoxantrone-resistant HL60/MX2 cells; format: functional
Tubulin (Homo sapiens) [6] = molecular target: T1, Tubulin (Homo sapiens); assay: Induction of microtubule depolymerization in HUVEC at 20 nM measured after 30 mins by DAPI-staining based immunofluorescence analysis; format: cell-based
[7] = Cytotoxicity against human NCI-H292 cells assessed as reduction in cell viability measured after 48 hrs by resazurin dye-based fluorometric analysis; format: functional; conditions: NCI-H292, 48 h
[8] = Cytotoxicity against mouse B16F10 cells assessed as reduction in cell viability measured after 48 hrs by resazurin dye-based fluorometric analysis; format: functional; conditions: B16-F10, 48 h
[9] = Cytotoxicity against human PC3 cells assessed as reduction in cell viability measured after 48 hrs by resazurin dye-based fluorometric analysis; format: functional; conditions: PC-3, 48 h
[10] = molecular target: Tubulin (Candida albicans) (UniProt P87066+P10875+O93807); assay: Inhibition of microtubule formation in Candida albicans; format: protein-complex assay
Trichophyton rubrum [11] = assay: Fungicidal activity against Trichophyton rubrum isolate 2 measured after 48 hrs by broth dilution method; format: functional; conditions: isolate 2, 48 h
[12] = Antifungal activity against Epidermophyton floccosum isolate 1 measured after 48 hrs by broth dilution method; format: functional
[13] = Antifungal activity against Trichophyton rubrum isolate 2 measured after 48 hrs by broth dilution method; format: functional
[14] = Antifungal activity against Trichophyton mentagrophytes isolate 2 measured after 48 hrs by broth dilution method; format: functional
[15] = Antifungal activity against Trichophyton mentagrophytes isolate 1 measured after 48 hrs by broth dilution method; format: functional
[16] = Antifungal activity against Epidermophyton floccosum isolate 2 measured after 48 hrs by broth dilution method; format: functional
[17] = system: Trichophyton mentagrophytes; assay: Fungicidal activity against Trichophyton mentagrophytes isolate 1 measured after 48 hrs by broth dilution method; format: functional; conditions: isolate 1, 48 h
Trichophyton rubrum [18] = assay: Fungicidal activity against Trichophyton rubrum isolate 1 measured after 48 hrs by broth dilution method; format: functional; conditions: isolate 1, 48 h
[19] = Antifungal activity against Trichophyton rubrum isolate 1 measured after 48 hrs by broth dilution method; format: functional
[20] = Cytotoxicity against mouse P388 cells assessed as reduction in cell viability measured after 48 hrs by resazurin dye-based fluorometric analysis; format: functional; conditions: P388, 48 h
Candida albicans [21] = assay: Antifungal activity against Candida albicans ATCC 10231 measured after 48 hrs by broth dilution method; format: functional; conditions: ATCC 10231, 48 h
[22] = Cytotoxicity against human PC3 cells assessed as reduction in cell viability measured after 48 hrs by resazurin dye-based fluorometric analysis relative to control; format: functional, PC-3; parameters: concentration or dose not given beside the values
[23] = Antifungal activity against Candida glabrata measured after 48 hrs by broth dilution method; format: functional; conditions: Nakaseomyces glabratus
Aspergillus fumigatus [24] = assay: Antifungal activity against Aspergillus fumigatus isolate 2 measured after 48 hrs by broth dilution method; format: functional; conditions: isolate 2, 48 h
Aspergillus fumigatus [25] = assay: Antifungal activity against Aspergillus fumigatus isolate 1 measured after 48 hrs by broth dilution method; format: functional; conditions: isolate 1, 48 h
Aspergillus fumigatus [26] = assay: Fungicidal activity against Aspergillus fumigatus isolate 2 measured after 48 hrs by broth dilution method; format: functional; conditions: isolate 2, 48 h
[27] = Cytotoxicity against human HT-29 cells assessed as reduction in cell viability measured after 48 hrs by resazurin dye-based fluorometric analysis relative to control; format: functional
Candida albicans [28] = assay: Antifungal activity against Candida albicans 90028 measured after 48 hrs by broth dilution method; format: functional; conditions: Candida albicans, 90028, 48 h

Chain of Tubulin (Candida albicans) (O93807 whole entry, looked up): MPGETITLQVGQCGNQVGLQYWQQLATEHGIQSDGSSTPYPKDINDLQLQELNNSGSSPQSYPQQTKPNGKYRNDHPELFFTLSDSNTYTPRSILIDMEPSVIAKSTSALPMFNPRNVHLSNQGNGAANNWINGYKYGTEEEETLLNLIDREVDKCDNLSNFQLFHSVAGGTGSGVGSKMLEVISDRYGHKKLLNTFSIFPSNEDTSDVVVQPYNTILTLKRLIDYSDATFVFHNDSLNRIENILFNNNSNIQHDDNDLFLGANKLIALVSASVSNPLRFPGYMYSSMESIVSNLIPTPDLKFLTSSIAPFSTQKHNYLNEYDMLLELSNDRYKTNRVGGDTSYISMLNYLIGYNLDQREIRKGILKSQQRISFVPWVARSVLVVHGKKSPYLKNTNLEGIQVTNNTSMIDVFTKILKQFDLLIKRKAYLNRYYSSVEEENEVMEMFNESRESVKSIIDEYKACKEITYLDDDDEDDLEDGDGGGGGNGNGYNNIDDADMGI
Chain of Tubulin (Candida albicans) (P10875 whole entry, looked up): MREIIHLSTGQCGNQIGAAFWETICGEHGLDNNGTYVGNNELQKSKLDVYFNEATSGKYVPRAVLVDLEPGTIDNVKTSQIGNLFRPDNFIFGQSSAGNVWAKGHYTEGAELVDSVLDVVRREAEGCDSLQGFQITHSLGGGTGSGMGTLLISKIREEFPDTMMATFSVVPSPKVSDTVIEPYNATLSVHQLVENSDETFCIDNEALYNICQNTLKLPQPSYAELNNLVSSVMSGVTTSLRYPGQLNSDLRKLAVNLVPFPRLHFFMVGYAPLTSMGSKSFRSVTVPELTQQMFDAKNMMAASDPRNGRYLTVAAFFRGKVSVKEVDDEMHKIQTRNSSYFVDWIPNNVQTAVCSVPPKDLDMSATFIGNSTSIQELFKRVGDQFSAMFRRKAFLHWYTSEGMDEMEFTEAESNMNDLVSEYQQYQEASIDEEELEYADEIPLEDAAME
Chain of Tubulin (Candida albicans) (P87066 whole entry, looked up): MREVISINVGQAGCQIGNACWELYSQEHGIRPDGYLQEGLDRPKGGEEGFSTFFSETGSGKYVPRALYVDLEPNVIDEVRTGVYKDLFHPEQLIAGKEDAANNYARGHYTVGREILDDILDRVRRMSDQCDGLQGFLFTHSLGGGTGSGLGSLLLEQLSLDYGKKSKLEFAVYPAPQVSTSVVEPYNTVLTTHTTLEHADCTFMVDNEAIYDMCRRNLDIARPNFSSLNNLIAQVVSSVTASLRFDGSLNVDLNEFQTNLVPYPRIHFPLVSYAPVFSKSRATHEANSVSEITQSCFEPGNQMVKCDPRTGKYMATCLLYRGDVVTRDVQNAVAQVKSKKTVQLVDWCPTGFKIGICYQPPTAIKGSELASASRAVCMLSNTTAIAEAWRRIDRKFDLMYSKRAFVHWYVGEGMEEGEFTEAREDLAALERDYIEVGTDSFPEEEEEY

## CCCCNC(=O)n1c(NC(=O)OC)nc2ccccc21 [BENOMYL]
Nakaseomyces glabratus
  MFC: > 512 µg/mL

## CC(C)(C)c1ocnc1/C=c1\[nH]c(=O)/c(=C/c2cccc(F)c2)[nH]c1=O
MES-SA
  Ratio EC50: 1.2
[1]
  EC50: 14 nM
[2]
  EC50: 16.3 to 17.1 nM
[3]
  IC50: 14 nM
Tubulin (Homo sapiens) [4]
  Activity: Active
[5]
  EC50: 24 nM
HL-60
  Ratio EC50: 0.5
Tubulin (Homo sapiens) [6]
  Activity: Active
[7]
  EC50: 14 nM
[8]
  EC50: 13 nM

## CC(C)(C)c1ocnc1/C=c1\[nH]c(=O)/c(=C/c2c(F)c(F)cc(F)c2F)[nH]c1=O
MES-SA
  Ratio EC50: 1.1
[2]
  EC50: 11 to 14.8 nM
[3]
  IC50: 14 nM
[9]
  EC50: 17 nM
Tubulin (Homo sapiens) [4]
  Activity: Active
[5]
  EC50: 42 nM
HL-60
  Ratio EC50: 0.4
Tubulin (Homo sapiens) [6]
  Activity: Active
[7]
  EC50: 14 nM
[8]
  EC50: > 2000 nM

## CC(C)OC(=O)Nc1cccc(Cl)c1
[10]
  inhibition: Active

## CC(C)(C)c1[nH]cnc1/C=C1\NC(=O)[C@H](Cc2ccccc2)NC1=O
Trichophyton rubrum [11]
  MFC: < 0.03 µg/mL
[12]
  MIC: > 16 µg/mL
[13]
  MIC: < 0.03 µg/mL
[14]
  MIC: > 16 µg/mL
[15]
  MIC: 4 µg/mL (≈ 11.8 µM)
[16]
  MIC: > 16 µg/mL
[17]
  MFC: > 16 µg/mL
Trichophyton rubrum [18]
  MFC: 0.125 µg/mL (≈ 0.369 µM)
[19]
  MIC: < 0.03 µg/mL

## NS(=O)(=O)c1ccc(S(=O)(=O)Nc2cccc3c(Cl)c[nH]c23)cc1
[20]
  IC50: 0.15 µg/mL (≈ 0.389 µM)

## COc1ccc(/C=c2\[nH]c(=O)/c(=C/c3nc[nH]c3C(C)(C)C)[nH]c2=O)c(OC)c1OC
Candida albicans [21]
  MIC: > 32 µg/mL
[22]
  Activity: 94%
[23]
  MIC: > 32 µg/mL
[2]
  EC50: 4060 to 4800 nM
Aspergillus fumigatus [24]
  MIC: 0.06 µg/mL (≈ 0.141 µM)
Aspergillus fumigatus [25]
  MIC: > 16 µg/mL
Aspergillus fumigatus [26]
  MFC: > 16 µg/mL
[27]
  inhibition (INH): 78%
Candida albicans [28]
  MIC: > 32 µg/mL

## COc1cc(/C=c2\[nH]c(=O)/c(=C/c3nc[nH]c3C(C)(C)C)[nH]c2=O)cc(OC)c1OC
Trichophyton rubrum [11]
  MFC: < 0.03 µg/mL
Candida albicans [21]
  MIC: > 32 µg/mL
[12]
  MIC: > 16 µg/mL
[13]
  MIC: < 0.03 µg/mL
[14]
  MIC: > 16 µg/mL
[23]
  MIC: > 32 µg/mL
[2]
  EC50: 819 to 2000 nM
Aspergillus fumigatus [24]
  MIC: 0.06 µg/mL (≈ 0.141 µM)
Aspergillus fumigatus [25]
  MIC: > 16 µg/mL
[15]
  MIC: 1 µg/mL (≈ 2.34 µM)
Aspergillus fumigatus [26]
  MFC: > 16 µg/mL
[16]
  MIC: > 16 µg/mL
[17]
  MFC: > 16 µg/mL
Trichophyton rubrum [18]
  MFC: > 16 µg/mL
Candida albicans [28]
  MIC: > 32 µg/mL
[19]
  MIC: 0.06 µg/mL (≈ 0.141 µM)
